Columns and labels:
[1] = target: Delta-type opioid receptor (Homo sapiens, UniProt P41143); assay: Displacement of [3H]DADLE from human DOR expressed in HEK cells measured after 90 mins by microbeta scintillation counting method; type: cell-based, HEK293
[2] = target: Mu-type opioid receptor (Homo sapiens, UniProt P35372); assay: Displacement of [3H]DAMGO from human MOR expressed in HEK cells after 90 mins by microbeta scintillation counting method; type: cell-based, HEK293
[3] = target: Kappa-type opioid receptor (Homo sapiens, UniProt P41145); assay: Displacement of [3H]U69593 from KOR (unknown origin) expressed in HEKT cells measured after 90 mins by microbeta scintillation counting method; type: cell-based
Chain of Kappa-type opioid receptor (P41145 whole entry): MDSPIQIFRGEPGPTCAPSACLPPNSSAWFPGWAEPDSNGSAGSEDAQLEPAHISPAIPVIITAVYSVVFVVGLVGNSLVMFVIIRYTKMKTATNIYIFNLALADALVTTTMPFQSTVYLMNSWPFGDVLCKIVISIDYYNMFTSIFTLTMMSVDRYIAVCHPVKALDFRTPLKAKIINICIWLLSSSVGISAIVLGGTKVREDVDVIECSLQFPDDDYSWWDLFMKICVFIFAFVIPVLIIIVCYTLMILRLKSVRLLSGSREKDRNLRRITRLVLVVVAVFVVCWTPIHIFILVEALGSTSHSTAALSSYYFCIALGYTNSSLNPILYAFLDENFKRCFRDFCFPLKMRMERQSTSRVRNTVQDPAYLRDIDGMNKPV

[4] = target: Sigma non-opioid intracellular receptor 1 (Cavia porcellus, UniProt Q60492); assay: Displacement of [3H]pentazocine from guinea pig sigma1 receptor measured after 90 mins by microbeta scintillation counting method
Chain of Sigma non-opioid intracellular receptor 1 (Q60492 whole entry): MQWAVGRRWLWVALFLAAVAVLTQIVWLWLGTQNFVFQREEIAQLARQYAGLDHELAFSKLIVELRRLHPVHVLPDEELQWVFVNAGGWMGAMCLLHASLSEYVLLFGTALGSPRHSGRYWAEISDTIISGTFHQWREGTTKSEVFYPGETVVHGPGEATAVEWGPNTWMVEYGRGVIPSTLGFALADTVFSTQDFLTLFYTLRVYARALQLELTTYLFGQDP

[5] = Displacement of [3H]DTG from sigma2 receptor in rat PC12 cells measured after 90 mins by microbeta scintillation counting method; type: cell-based; conditions: pc-12
[6] = tested on: PC-12; assay: Selectivity ratio of Ki for sigma2 receptor in rat PC12 cells to Ki for guinea pig sigma1 receptor; type: cell-based
[7] = tested on: PC-12; assay: Selectivity ratio of Ki for guinea pig sigma1 receptor to Ki for sigma2 receptor in rat PC12 cells; type: cell-based
[8] = target: T1, 5-hydroxytryptamine receptor 1A (Homo sapiens, UniProt P08908); assay: Displacement of [3H]Way100635 from human 5-HT1A receptor expressed in CHO cells measured after 90 mins by microbeta scintillation counting method; type: cell-based
T1 sequence (P08908 whole entry): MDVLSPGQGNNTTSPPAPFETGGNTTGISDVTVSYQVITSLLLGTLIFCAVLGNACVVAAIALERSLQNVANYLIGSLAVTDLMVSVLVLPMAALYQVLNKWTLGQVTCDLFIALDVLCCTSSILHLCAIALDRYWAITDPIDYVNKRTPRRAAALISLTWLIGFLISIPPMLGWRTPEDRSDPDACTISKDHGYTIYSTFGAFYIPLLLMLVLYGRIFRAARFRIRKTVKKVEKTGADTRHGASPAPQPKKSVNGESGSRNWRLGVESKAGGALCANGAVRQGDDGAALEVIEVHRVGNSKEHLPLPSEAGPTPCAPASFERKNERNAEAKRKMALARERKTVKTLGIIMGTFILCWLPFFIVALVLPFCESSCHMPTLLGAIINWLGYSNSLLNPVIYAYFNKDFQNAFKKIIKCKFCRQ

Chain of Delta-type opioid receptor (P41143 whole entry): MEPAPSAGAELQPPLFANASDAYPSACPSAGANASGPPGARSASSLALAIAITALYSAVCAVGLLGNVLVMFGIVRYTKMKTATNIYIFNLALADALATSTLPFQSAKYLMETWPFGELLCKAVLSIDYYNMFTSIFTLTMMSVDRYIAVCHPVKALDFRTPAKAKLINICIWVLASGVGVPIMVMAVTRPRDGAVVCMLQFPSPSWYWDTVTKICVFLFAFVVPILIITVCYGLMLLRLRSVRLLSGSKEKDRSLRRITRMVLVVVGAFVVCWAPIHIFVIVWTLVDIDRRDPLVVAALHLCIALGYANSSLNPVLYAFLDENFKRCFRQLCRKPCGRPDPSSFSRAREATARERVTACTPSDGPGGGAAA
Chain of Mu-type opioid receptor (P35372 whole entry): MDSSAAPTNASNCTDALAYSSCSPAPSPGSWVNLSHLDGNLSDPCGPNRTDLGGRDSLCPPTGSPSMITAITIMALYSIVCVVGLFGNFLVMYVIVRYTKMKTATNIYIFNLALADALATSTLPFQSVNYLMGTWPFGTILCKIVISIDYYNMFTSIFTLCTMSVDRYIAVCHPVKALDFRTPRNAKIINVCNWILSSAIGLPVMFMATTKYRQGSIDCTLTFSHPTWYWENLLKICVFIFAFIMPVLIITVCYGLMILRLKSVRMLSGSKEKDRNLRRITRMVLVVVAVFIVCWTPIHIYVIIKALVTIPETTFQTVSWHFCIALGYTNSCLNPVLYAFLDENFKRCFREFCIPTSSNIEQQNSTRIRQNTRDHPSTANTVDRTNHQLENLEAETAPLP

SMILES | Ki [1] [nM] | Ki [2] [nM] | Ki [3] [nM] | Ki [4] [nM] | Ki [5] [nM] | Ratio Ki [6] | Ratio Ki [7] | Ki [8] [nM]
CCCN1CC[C@H]2CC(=O)[C@H](Cc3ccc(OC)cc3)[C@H]3CCC[C@@H]1[C@H]23 | > 10000 | > 10000 | > 10000 | 9 | 29 | 3.2 |  | 
CC[C@H]1C(=O)C[C@@H]2CCN(CCC(C)C)[C@@H]3CCC[C@H]1[C@@H]23 | > 10000 | > 10000 | 1280 | 4 | 6 | 1.5 |  | 
CC(C)CCN1CC[C@H]2CC(=O)[C@H](Cc3ccccc3)[C@H]3CCC[C@@H]1[C@H]23 | > 10000 | > 10000 | 711 | 2 | 3 | 1.5 |  | 
COc1ccc(C[C@H]2C(=O)C[C@@H]3CCN(CC4CCCCC4)[C@@H]4CCC[C@H]2[C@@H]34)cc1 | > 10000 | > 10000 | 1600 | 10 | 3 | 0.3 | 3 | 
O=C1C[C@@H]2CCN(CC3CCCCC3)[C@@H]3CCC[C@@H]([C@@H]23)[C@H]1Cc1ccccc1 | > 10000 | > 10000 | 1230 | 3 | 2 | 0.7 |  | 
CCCN1CC[C@H]2CC(=O)[C@H](CC)[C@H]3CCC[C@@H]1[C@H]23 | > 10000 | > 10000 | > 10000 | 11 to 12 | 230 to 401 | 20.9 |  | 4500
CCCN1CC[C@@H]2CC(=O)C[C@H]3CCC[C@H]1[C@H]32 | > 10000 | > 10000 | > 10000 | 345 | 663 | 1.9 |  | 
CCCN1CC[C@H]2CC3=Nc4ccccc4[C@]3(CC)[C@H]3CCC[C@@H]1[C@H]23 | > 10000 | > 10000 | > 10000 | 7 | 76 | 10.9 |  | 
COc1ccc(C[C@H]2C(=O)C[C@@H]3CCN(C)[C@@H]4CCC[C@H]2[C@@H]34)cc1 | > 10000 | > 10000 | > 10000 | 5 | 251 | 50.2 |  | 
CCCN1CC[C@H]2C[C@@H](O)[C@H](CC)[C@H]3CCC[C@@H]1[C@H]23 | > 10000 | > 10000 | > 10000 | 55 | 183 | 3.3 |  | 
COCCN1CC[C@H]2CC(=O)[C@H](Cc3ccccc3)[C@H]3CCC[C@@H]1[C@H]23 | > 10000 | > 10000 | > 10000 | 2 | 35 | 17.5 |  | 
CCCN1CC[C@H]2CC(=O)[C@H](Cc3ccccc3)[C@H]3CCC[C@@H]1[C@H]23 | > 10000 | > 10000 | 3620 | 1 | 5 | 5 |  | 
CCCN1CC[C@H]2c3cc4cc(Cl)ccc4nc3[C@H](CC)[C@H]3CCC[C@@H]1[C@@H]32 | > 10000 | > 10000 | 372 | 209 | 17 | 0.08 | 12.3 | 
CCCN1CC[C@H]2CC(=O)C[C@H]3CCC[C@@H]1[C@@H]32 | > 10000 | > 10000 | > 10000 | 126 | 127 | 1 |  | 
O=C(CCCN1CCC(O)(c2ccc(Cl)cc2)CC1)c1ccc(F)cc1 [HALOPERIDOL] |  |  |  |  | 14 |  |  | 
CCCN1CC[C@H]2c3cc4cccc(OC)c4nc3[C@H](CC)[C@H]3CCC[C@@H]1[C@@H]32 | > 10000 | > 10000 | 1690 | 171 | 63 | 0.4 | 2.7 | 
O=C1C[C@@H]2CCN(Cc3nccs3)[C@@H]3CCC[C@@H]([C@@H]23)[C@H]1Cc1ccccc1 | > 10000 | > 10000 | 1400 | 3 | 270 | 90 |  | 
CC[C@H]1c2nc3ccccc3cc2[C@@H]2CCN(C)[C@@H]3CCC[C@H]1[C@H]32 | > 10000 | > 10000 | 3490 | 189 | 86 | 0.5 | 2.2 | 
CC[C@H]1C(=O)C[C@@H]2CCN(S(=O)(=O)c3ccc(C)cc3)[C@@H]3CCC[C@H]1[C@@H]23 | > 10000 | > 10000 | > 10000 | > 10000 | > 10000 |  |  | 

The next lines start with results.

Ki [1] [nM] | Ki [2] [nM] | Ki [3] [nM] | Ki [4] [nM] | SMILES | Ki [5] [nM] | Ratio Ki [6] | Ratio Ki [7] | Ki [8] [nM]
> 10000 | 892 | 1470 | 6 | CC[C@H]1C(=O)C[C@@H]2CCN(Cc3cccs3)[C@@H]3CCC[C@H]1[C@@H]23 | 187 | 31.2 |  | 
> 10000 | 632 | > 10000 | 2 | CCCCCCCN1CC[C@H]2CC(=O)[C@H](CC)[C@H]3CCC[C@@H]1[C@H]23 | 8 | 4 |  | 
> 10000 | > 10000 | 493 | 70 | CCCN1CC[C@H]2c3cc4ccccc4nc3[C@H](CC)[C@H]3CCC[C@@H]1[C@@H]32 | 27 | 0.4 | 2.6 | 
> 10000 | > 10000 | > 10000 | 3 | COc1ccc(C[C@H]2C(=O)C[C@@H]3CCN(CCC(C)C)[C@@H]4CCC[C@H]2[C@@H]34)cc1 | 6 | 2 |  | 
> 10000 | 1900 | 278 | 4 | CC[C@H]1C(=O)C[C@@H]2CCN(CC3CCCCC3)[C@@H]3CCC[C@H]1[C@@H]23 | 3 | 0.8 |  | 
> 10000 | > 10000 | > 10000 | 407 | CC[C@H]1C(=O)C[C@@H]2CCN(Cc3nccs3)[C@@H]3CCC[C@H]1[C@@H]23 | 760 | 1.9 |  | 
> 10000 | > 10000 | > 10000 | 722 | CC[C@H]1C(=O)C[C@@H]2CCN(C(=O)NCc3ccc(Cl)cc3)[C@@H]3CCC[C@H]1[C@@H]23 | 1910 | 2.6 |  | 
> 10000 | > 10000 | > 10000 | 26 | CC[C@H]1C(=O)C[C@@H]2CCN(CCOC)[C@@H]3CCC[C@H]1[C@@H]23 | 423 | 16.3 |  | 
> 10000 | > 10000 | 638 | 3 | O=C1C[C@@H]2CCN(Cc3cccs3)[C@@H]3CCC[C@@H]([C@@H]23)[C@H]1Cc1ccccc1 | 44 | 14.7 |  | 
> 10000 | > 10000 | > 10000 | 137 | CC[C@H]1C(=O)C[C@@H]2CCN(C)[C@@H]3CCC[C@H]1[C@@H]23 | > 5930 | > 43.3 |  | 

Reference: ChEMBL document CHEMBL3868615, “Decahydrobenzoquinolin-5-one sigma receptor ligands: Divergent development of both sigma 1 and sigma 2 receptor selective examples” (Bioorg Med Chem Lett, 2016)
